One assay addresses T1, HPK1 (Homo sapiens, UniProt Q92918).
T1 construct: purchased SignalChem M23-11G
T1 sequence (Q92918 1-346 limits assumed): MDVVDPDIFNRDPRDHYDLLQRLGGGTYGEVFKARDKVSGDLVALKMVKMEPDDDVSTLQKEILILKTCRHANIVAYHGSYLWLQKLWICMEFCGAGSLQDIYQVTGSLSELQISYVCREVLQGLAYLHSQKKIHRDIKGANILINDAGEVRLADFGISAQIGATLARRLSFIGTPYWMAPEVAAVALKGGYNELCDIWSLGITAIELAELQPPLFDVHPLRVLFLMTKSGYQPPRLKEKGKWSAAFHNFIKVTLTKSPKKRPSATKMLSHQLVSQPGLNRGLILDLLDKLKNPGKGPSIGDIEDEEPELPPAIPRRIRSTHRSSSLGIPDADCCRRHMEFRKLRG
Nature of the assay: HPK1 Inhibition Assay (kinase reaction, Caliper capillary electrophoresis). Format: biochemical. Conditions: for IC50: 0.625 nM HPK1, 22 μM ATP, 11 concentrations, read-out: HPK1 IC50; for IRAK4/HPK1 Ratio: ratio of the IRAK4 IC50 value to the HPK1 IC50 value. The method, then:
The reactions were incubated out for three hours and quenched with 1 mM EDTA solution. The reaction incubation time and enzyme concentration were optimized to obtain a maximum peptide substrate conversion of 20-30%. The reaction mixtures were analyzed by capillary electrophoresis on a Caliper LabChip EZ Reader to resolve phosphorylated and unphosphorylated peptide species and determine peptide substrate conversion. […] The compounds were dissolved in DMSO and evaluated at 11 concentrations to determine the IC50 values.

The target in another assay is T2, IRAK4 (Homo sapiens, UniProt Q9NWZ3).
T2 construct: 1 nM IRAK4 (160-460); purchased SignalChem M24016
T2 sequence (Q9NWZ3 160-460): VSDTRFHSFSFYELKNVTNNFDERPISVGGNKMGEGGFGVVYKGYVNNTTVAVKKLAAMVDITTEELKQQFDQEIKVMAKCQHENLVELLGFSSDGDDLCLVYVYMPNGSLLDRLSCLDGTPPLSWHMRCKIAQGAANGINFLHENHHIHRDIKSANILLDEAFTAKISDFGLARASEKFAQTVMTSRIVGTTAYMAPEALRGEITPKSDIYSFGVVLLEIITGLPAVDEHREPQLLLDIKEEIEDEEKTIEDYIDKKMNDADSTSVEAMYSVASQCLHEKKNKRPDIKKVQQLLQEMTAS
The assay is described as follows: IRAK4 Inhibition Assay (kinase reaction, Caliper capillary electrophoresis). Conditions: 500 μM ATP, 11 concentrations. The class given is biochemical. The method, then:
The reactions were incubated out for three hours and quenched with 1 mM EDTA solution. The reaction incubation time and enzyme concentration were optimized to obtain a maximum peptide substrate conversion of 20-30%. The reaction mixtures were analyzed by capillary electrophoresis on a Caliper LabChip EZ Reader to resolve phosphorylated and unphosphorylated peptide species and determine peptide substrate conversion. […] The compounds were dissolved in DMSO and evaluated at 11 concentrations to determine IC50 values.

Molecules are shown by their SMILES. A value given as a limit tells only on which side of the number the result lay.

In general, IC50 refers to the concentration at which inhibition is half-maximal. In the case of `CC1(C)OC(=O)c2ccc(Nc3ncc(-c4n[nH]c(=O)o4)c(N[C@H](CO)c4ccccc4)n3)cc21` [Example 52, 5-{2-[(3,3-dimethyl-1-oxo-1,3-dihydro-2-benzofuran-5-yl)amino]-4-{[(1S)-2-hydroxy-1-phenylethyl]amino}pyrimidin-5-yl}-2,3-dihydro-1,3,4-oxadiazol-2-one], on HPK1, the IC50 is less than 50 nM and the “IRAK4/HPK1 Ratio” value is “C (C=>50)”. This compound had a concentration for half-maximal inhibition (IC50) on IRAK4 of 250 to 1000 nM.

Consider `CC1(CNC(=O)c2cnc(Nc3ccc4c(c3)C(C)(C)OC4=O)nc2N[C@H](CO)c2ccccc2)COC1` [Example 23, 2-[(3,3-dimethyl-1-oxo-1,3-dihydro-2-benzofuran-5-yl)amino]-4-{[(1S)-2-hydroxy-1-phenylethyl]amino}-N-[(3-methyloxetan-3-yl)methyl]pyrimidine-5-carboxamide], for which, on HPK1, the concentration for half-maximal inhibition (IC50) is less than 50 nM and the “IRAK4/HPK1 Ratio” value was “B (B=10 to 50)”. In addition, the IC50 at IRAK4 was 250 to 1000 nM.

With `C#CCNC(=O)c1cnc(Nc2ccc3c(c2)C(C)(C)OC3=O)nc1N[C@H](CO)c1ccccc1` [Example 21, 2-[(3,3-dimethyl-1-oxo-1,3-dihydro-2-benzofuran-5-yl)amino]-4-{[(1S)-2-hydroxy-1-phenylethyl]amino}-N-(prop-2-yn-1-yl)pyrimidine-5-carboxamide], at HPK1, the IC50 was less than 50 nM and the “IRAK4/HPK1 Ratio” value is recorded as “B (B=10 to 50)”. At IRAK4, this compound registered a half-inhibitory concentration (IC50) of 250 to 1000 nM.

Take `CC1(C)OC(=O)c2ccc(Nc3ncc(-c4nnc(-c5ccccn5)o4)c(N[C@H](CO)c4ccccc4)n3)cc21` [Example 66, 5-[(4-{[(1S)-2-hydroxy-1-phenylethyl]amino}-5-[5-(pyridin-2-yl)-1,3,4-oxadiazol-2-yl]pyrimidin-2-yl)amino]-3,3-dimethyl-1,3-dihydro-2-benzofuran-1-one]: on HPK1, the IC50 lay in the range of 50 to 250 nM and the “IRAK4/HPK1 Ratio” value is “B (B=10 to 50)”. This compound also returned a half-inhibitory concentration (IC50) on IRAK4 of 250 to 1000 nM.

For `CC1(C)OC(=O)c2ccc(Nc3ncc(-c4nnc(C5(C(F)(F)F)CC5)o4)c(N[C@H](CO)c4ccccc4)n3)cc21` [Example 68, 5-[(4-{[(1S)-2-hydroxy-1-phenylethyl]amino}-5-{5-[1-(trifluoromethyl)cyclopropyl]-1,3,4-oxadiazol-2-yl}pyrimidin-2-yl)amino]-3,3-dimethyl-1,3-dihydro-2-benzofuran-1-one], at HPK1, the IC50 was less than 50 nM and the “IRAK4/HPK1 Ratio” value was “B (B=10 to 50)”. This compound also gave an IC50 against IRAK4 of 250 to 1000 nM.

Regarding `CC1(C)OC(=O)c2ccc(Nc3ncc(-c4nnc(-c5cccnc5)o4)c(N[C@H](CO)c4ccccc4)n3)cc21` [Example 57, 5-[(4-{[(1S)-2-hydroxy-1-phenylethyl]amino}-5-[5-(pyridin-3-yl)-1,3,4-oxadiazol-2-yl]pyrimidin-2-yl)amino]-3,3-dimethyl-1,3-dihydro-2-benzofuran-1-one], the IC50 on HPK1 was less than 50 nM; at IRAK4, 250 to 1000 nM. Also, at HPK1, the “IRAK4/HPK1 Ratio” value is listed as “C (C=>50)”.

On to `COC(=O)NC12CC(c3noc(-c4cnc(Nc5ccc6c(c5)C(C)(C)OC6=O)nc4N[C@H](CO)c4ccccc4)n3)(C1)C2` [Example 50, Methyl N-[3-(5-{2-[(3,3-dimethyl-1-oxo-1,3-dihydro-2-benzofuran-5-yl)amino]-4-{[(1S)-2-hydroxy-1-phenylethyl]amino}pyrimidin-5-yl}-1,2,4-oxadiazol-3-yl)bicyclo[1.1.1]pentan-1-yl]carbamate], for which, on HPK1, the IC50 is less than 50 nM and the “IRAK4/HPK1 Ratio” value was “C (C=>50)”. Further, the half-inhibitory concentration (IC50) at IRAK4 lay within 250 to 1000 nM.

For `CC(C)(CN)CNc1nc(Nc2ccc3c(c2)C(C)(C)OC3=O)ncc1-c1nc(C2CCOCC2)no1` [Example 77, 5-({4-[(3-amino-2,2-dimethylpropyl)amino]-5-[3-(oxan-4-yl)-1,2,4-oxadiazol-5-yl]pyrimidin-2-yl}amino)-3,3-dimethyl-1,3-dihydro-2-benzofuran-1-one], at HPK1, the IC50 is less than 50 nM and the “IRAK4/HPK1 Ratio” value is reported as “C (C=>50)”. Also, at IRAK4, the half-maximal inhibitory concentration (IC50) is 250 to 1000 nM.

Turning to `CC1(C)OC(=O)c2ccc(Nc3cc(N[C@H](CO)c4ccccc4)c(-c4nnc(C5(C#N)CC5)o4)cn3)nc21` [Example 88, 1-{5-[6-({7,7-dimethyl-5-oxo-5H,7H-furo[3,4-b]pyridin-2-yl}amino)-4-{[(1S)-2-hydroxy-1-phenylethyl]amino}pyridin-3-yl]-1,3,4-oxadiazol-2-yl}cyclopropane-1-carbonitrile], on HPK1, the IC50 is less than 50 nM and the “IRAK4/HPK1 Ratio” value was “C (C=>50)”. The 50% inhibitory concentration (IC50) on IRAK4 is 250 to 1000 nM.

In the case of `Cc1cnc(CNC(=O)c2cnc(Nc3ccc4c(c3)C(C)(C)OC4=O)nc2N[C@H](CO)c2ccccc2)cn1` [Example 20, 2-[(3,3-dimethyl-1-oxo-1,3-dihydro-2-benzofuran-5-yl)amino]-4-{[(1S)-2-hydroxy-1-phenylethyl]amino}-N-[(5-methylpyrazin-2-yl)methyl]pyrimidine-5-carboxamide], on HPK1, the IC50 is less than 50 nM and the “IRAK4/HPK1 Ratio” value is given as “B (B=10 to 50)”. On IRAK4, this compound gave a half-inhibitory concentration (IC50) of 250 to 1000 nM.

As for `CC1(C)OC(=O)c2ccc(Nc3ncc(-c4nc(C5CC5)no4)c(Nc4ccc5[nH]ncc5c4)n3)cc21` [Example 75, 5-{[5-(3-cyclopropyl-1,2,4-oxadiazol-5-yl)-4-[(1H-indazol-5-yl)amino]pyrimidin-2-yl]amino}-3,3-dimethyl-1,3-dihydro-2-benzofuran-1-one], on HPK1, the IC50 was 50 to 250 nM and the “IRAK4/HPK1 Ratio” value is listed as “B (B=10 to 50)”. This compound came in with a 50% inhibitory concentration (IC50) against IRAK4 of 250 to 1000 nM.

Turning to `CC1(C)OC(=O)c2ccc(Nc3cc(N[C@H](CO)c4ccccc4)c(-c4nnc(C5CC5)o4)cn3)nc21` [Example 86, 2-{[5-(5-cyclopropyl-1,3,4-oxadiazol-2-yl)-4-{[(1S)-2-hydroxy-1-phenylethyl]amino}pyridin-2-yl]amino}-7,7-dimethyl-5H,7H-furo[3,4-b]pyridin-5-one], at HPK1, the IC50 is less than 50 nM and the “IRAK4/HPK1 Ratio” value was “B (B=10 to 50)”. At IRAK4, this compound came in with an IC50 of 50 to 250 nM.

For `CCn1nc(-c2cnc(Nc3ccc4c(c3)C(C)(C)OC4=O)nc2N[C@H](CO)c2ccccc2)oc1=O` [Example 53, 5-{2-[(3,3-dimethyl-1-oxo-1,3-dihydro-2-benzofuran-5-yl)amino]-4-{[(1S)-2-hydroxy-1-phenylethyl]amino}pyrimidin-5-yl}-3-ethyl-2,3-dihydro-1,3,4-oxadiazol-2-one], on HPK1, the IC50 is less than 50 nM and the “IRAK4/HPK1 Ratio” value was “C (C=>50)”. Moreover, the IC50 against IRAK4 is 250 to 1000 nM.

Turning to `CCOC(=O)c1cnc(Nc2ccc3c(c2)C(C)(C)OC3=O)nc1NCCC(C)(C)N` [Example 76, Ethyl 4-[(3-amino-3-methylbutyl)amino]-2-[(3,3-dimethyl-1-oxo-1,3-dihydro-2-benzofuran-5-yl)amino]pyrimidine-5-carboxylate], the IC50 lay in the range of 50 to 250 nM on HPK1 and 250 to 1000 nM at IRAK4. For the same compound, on HPK1, the “IRAK4/HPK1 Ratio” value was “B (B=10 to 50)”.

For the compound `CC1(C)OC(=O)c2ccc(Nc3ncc(C(=O)NCC4CC(F)(F)C4)c(N[C@H](CO)c4ccccc4)n3)cc21` [Example 4, N-[(3,3-difluorocyclobutyl)methyl]-2-[(3,3-dimethyl-1-oxo-1,3-dihydro-2-benzofuran-5-yl)amino]-4-{[(1S)-2-hydroxy-1-phenylethyl]amino}pyrimidine-5-carboxamide], on HPK1, the half-inhibitory concentration (IC50) is less than 50 nM and the “IRAK4/HPK1 Ratio” value is reported as “B (B=10 to 50)”. The IC50 at IRAK4 was in the range of 250 to 1000 nM.

For the compound `CCOC(=O)c1cnc(Nc2ccc3c(c2)C(C)(C)OC3=O)nc1NCc1ccccc1C(C)(C)O` [Example 71, Ethyl 2-[(3,3-dimethyl-1-oxo-1,3-dihydro-2-benzofuran-5-yl)amino]-4-({[2-(2-hydroxypropan-2-yl)phenyl]methyl}amino)pyrimidine-5-carboxylate], on HPK1, the concentration for half-maximal inhibition (IC50) was less than 50 nM and the “IRAK4/HPK1 Ratio” value is given as “B (B=10 to 50)”. Also, on IRAK4, the IC50 is 250 to 1000 nM.

With `CC1(C)OC(=O)c2ccc(Nc3ncc(C(=O)NNC(=O)C(C)(O)C(F)(F)F)c(N[C@H](CO)c4ccccc4)n3)cc21` (stereo partly drawn) [Example 64, 2-[(3,3-dimethyl-1-oxo-1,3-dihydro-2-benzofuran-5-yl)amino]-4-{[(1S)-2-hydroxy-1-phenylethyl]amino}-N′-(3,3,3-trifluoro-2-hydroxy-2-methylpropanoyl)pyrimidine-5-carbohydrazide], on HPK1, the half-maximal inhibitory concentration (IC50) lay in the range of 50 to 250 nM and the “IRAK4/HPK1 Ratio” value is listed as “B (B=10 to 50)”. In addition, at IRAK4, the half-maximal inhibitory concentration (IC50) fell in the range of 250 to 1000 nM.
